Structures can show the parent of a compound that is named as a salt. ± gives the standard deviation of the averaged measurements.
System: HepaRG
Assay: LDH release cytotoxicity, % of total lysis control; higher = more cytotoxic
Details: 48 h
Method in brief: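 Percent cytotoxicity was scaled between on-plate vehicle and total lysis controls, then averaged over duplicate wells. The cells were single-lot HepaRG on collagen I-coated 96-well plates, exposed for 48 h to eight-point half-log test chemical series topping at 100 µM in serum-free induction medium with 0.5% DMSO. Total lysis wells got 0.1% Triton X, and LDH in 50 µL spent medium was read as resorufin fluorescence (CytoTox-ONE, Tecan Safire).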

Row | SMILES | LDH release cytotoxicity (0.03162 µM) [%] | LDH release cytotoxicity (0.1 µM) [%] | LDH release cytotoxicity (0.3162278 µM) [%] | LDH release cytotoxicity (1 µM) [%] | LDH release cytotoxicity (3.16228 µM) [%] | LDH release cytotoxicity (10 µM) [%] | LDH release cytotoxicity (31.6228 µM) [%] | LDH release cytotoxicity (100 µM) [%] | other results
1 | CCCCCCCCCCCCc1ccccc1S(=O)(=O)O [Sodium dodecylbenzenesulfonate] | -1.64 ± 0.19 | -2.37 ± 0.1 | -2.11 ± 0.97 | -2.14 ± 0.36 | -1.89 ± 0.21 | -2.56 ± 1.3 | -1.08 ± 0.42 | 49.9 ± 3.5 | 
2 | CCCCCCCCCCCCCCCCOS(=O)(=O)O [Sodium hexyldecyl sulfate] |  |  |  |  |  |  |  |  | LDH release cytotoxicity (0.01581 µM): -0.927 ± 0.59%; LDH release cytotoxicity (0.05 µM): -0.892 ± 0.52%; LDH release cytotoxicity (0.1581139 µM): -1.25 ± 0.18%; LDH release cytotoxicity (0.5 µM): -1.53 ± 0.15%; LDH release cytotoxicity (1.5811388 µM): -0.623 ± 0.48%; LDH release cytotoxicity (5 µM): -0.974 ± 0.097%; LDH release cytotoxicity (15.8114 µM): -0.978 ± 0.78%; LDH release cytotoxicity (50 µM): 10.6 ± 1.9%
3 | CCCCCCCCCCCCCCOS(=O)(=O)O [Sodium myristyl sulfate] | -2.12 ± 0.45 | -2.09 ± 0.56 | -2.4 ± 1.5 | -2.13 ± 0.48 | -2.25 ± 0.37 | -1.43 ± 0.37 | -1.69 ± 0.59 | 12.5 ± 6.7 | 
4 | O=NO [Sodium nitrite] | -3.61 ± 3.5 | 0.52 ± 1.1 | -0.867 ± 0.14 | -2.02 ± 0.5 | -1.06 ± 0.48 | -0.549 ± 0.34 | -1.15 ± 0.46 | 0.684 ± 0.51 | 
5 | O=C1NS(=O)(=O)c2ccccc21 [Sodium saccharin hydrate] | -0.893 ± 0.069 | -1.1 ± 0.76 | -0.541 ± 0.034 | -1.22 ± 0.43 | -1.77 ± 0.0062 | -0.645 ± 0.66 | -0.345 ± 0.15 | 1.33 ± 0.048 | 
6 | O=C(O)C(Cl)(Cl)Cl [Sodium trichloroacetate] | -0.75 ± 0.63 | -0.518 ± 0.088 | -1.06 ± 0.36 | -0.987 ± 0.68 | -1.23 ± 1.3 | -0.588 ± 0.51 | 0.00119 ± 0.52 | 0.935 ± 0.7 | 
7 | Cc1ccc(S(=O)(=O)O)cc1C [Sodium xylenesulfonate] | -0.646 ± 0.56 | -1.44 ± 0.33 | -1.14 ± 1.1 | -1.21 ± 0.25 | -1.1 ± 0.39 | -1.23 ± 0.36 | -1.25 ± 0.27 | 1.23 ± 0.65 | 
8 | CCCCCCCCC=CCCCCCCCC(=O)OCC(O)C1OCC(O)C1O (centres undefined) [Sorbitan, mono-(9Z)-9-octadecenoate] | -0.746 ± 0.21 | -0.105 ± 0.41 | -1.38 ± 0.83 | -1.65 ± 0.91 | -1.48 ± 1 | -1.08 ± 0.14 | -0.835 ± 0.26 | -0.317 ± 0.22 | 
9 | CCC(C)(C)C(=O)OC1=C(c2ccc(Cl)cc2Cl)C(=O)OC12CCCCC2 [Spirodiclofen] | -0.904 ± 0.1 | -1.21 ± 1.1 | -0.287 ± 0.5 | -1.32 ± 0.39 | -1.74 ± 0.89 | 0.0779 ± 0.41 | -1.05 ± 0.14 | 0.552 ± 0.59 | 
10 | CC(=O)SC1CC2=CC(=O)CCC2(C)C2CCC3(C)C(CCC34CCC(=O)O4)C12 (centres undefined) [Spironolactone] | 0.148 ± 1 | -0.279 ± 0.079 | -1.43 ± 0.44 | -1.93 ± 0.13 | -1.42 ± 0.35 | -1.46 ± 0.3 | -0.441 ± 0.098 | 13.5 ± 1.6 | 
11 | CCCN(CC)CC1COC2(CCC(C(C)(C)C)CC2)O1 (centres undefined) [Spiroxamine] | -0.782 ± 0.87 | -1.02 ± 0.35 | 0.233 ± 0.6 | -0.292 ± 0.15 | 0.829 ± 0.38 | 0.738 ± 0.62 | 1.08 ± 0.99 | 1.62 ± 0.76 | 
12 | Cc1cn(C2C=CC(CO)O2)c(=O)[nH]c1=O (centres undefined) [Stavudine] | -0.726 ± 0.35 | -0.277 ± 0.41 | 0.0542 ± 0.56 | 0.024 ± 0.42 | -0.127 ± 0.0047 | 0.3 ± 1.1 | 0.433 ± 0.49 | 2.36 ± 0.35 | 
13 | c1ccc(C2CO2)cc1 (centres undefined) [Styrene oxide] | -1.36 ± 0.96 | -1.15 ± 0.44 | -1.2 ± 0.66 | -1.64 ± 0.41 | -1.36 ± 0.55 | -0.823 ± 1.1 | -0.175 ± 0.79 | 0.415 ± 0.9 | 
14 | CC(=O)OCC1OC(OC2(COC(C)=O)OC(COC(C)=O)C(OC(C)=O)C2OC(C)=O)C(OC(C)=O)C(OC(C)=O)C1OC(C)=O (centres undefined) [Sucrose octaacetate] |  |  |  |  |  |  |  |  | LDH release cytotoxicity (0.0238752 µM): -0.662 ± 1.5%; LDH release cytotoxicity (0.0755 µM): -0.298 ± 1.5%; LDH release cytotoxicity (0.238752 µM): -0.188 ± 0.8%; LDH release cytotoxicity (0.755 µM): -1.45 ± 0.2%; LDH release cytotoxicity (2.38752 µM): -0.463 ± 0.58%; LDH release cytotoxicity (7.55 µM): -0.261 ± 0.3%; LDH release cytotoxicity (23.8752 µM): -0.0769 ± 0.54%; LDH release cytotoxicity (75.5 µM): 1.89 ± 0.36%
15 | OCC1OC(OC2(CO)OC(CO)C(O)C2O)C(O)C(O)C1O (centres undefined) [Sucrose] | -1.56 ± 0.45 | -2.84 ± 0.18 | -1.3 ± 0.074 | -1.84 ± 0.36 | -2 ± 1.1 | -0.48 ± 1.6 | -0.542 ± 1.9 | 1.54 ± 1.6 | 
16 | O=C(O)c1cc(N=Nc2ccc(S(=O)(=O)Nc3ccccn3)cc2)ccc1O [Sulfasalazine] | -0.789 ± 0.12 | -1.61 ± 0.69 | -0.498 ± 0.038 | -0.487 ± 0.14 | -0.767 ± 0.31 | 0.367 ± 0.64 | 0.113 ± 1.2 | 1.04 ± 1.2 | 
17 | Cc1nn(-c2cc(NS(C)(=O)=O)c(Cl)cc2Cl)c(=O)n1C(F)F [Sulfentrazone] | -1.66 ± 0.5 | -1.99 ± 0.051 | -2.52 ± 0.25 | -2.37 ± 0.49 | -0.982 ± 0.51 | -1.17 ± 0.24 | -1.23 ± 0.51 | 0.713 ± 0.36 | 
18 | CCc1c(C(=O)NN2CCCCC2)nn(-c2ccc(Cl)cc2Cl)c1-c1ccc(Br)cc1 [Surinabant] | -0.47 ± 0.5 | -0.954 ± 0.83 | -1.13 ± 1.6 | -1.44 ± 0.058 | -0.402 ± 0.14 | 2.16 ± 0.28 | 15.8 ± 2.2 | 77.6 ± 2.6 | 
